Data reported in patent US20240189435A1, “NOVEL PEPTIDE-OLIGONUCLEOTIDE CONJUGATE AND USE THEREOF” (KOREA INSTITUTE OF SCIENCE AND TECHNOLOGY, priority 2021, published 2024).

Key:
[1] = system: iNOS (M1 marker); assay: Immunofluorescence of tumor-associated macrophages, iNOS; assay type: in vivo, mice; settings: tumor-associated macrophages in excised tumor tissue, 21 days
Method: (§1) 21 days after the animal test, tumor-associated macrophages infiltrating the excised tumor tissue were analyzed by immunofluorescence (IF).

[2] = system: miRNA-21; assay: Agarose gel electrophoresis of binding to miRNA-21
Method: The binding affinity of miRNA-21 and Pep-21 was evaluated through agarose gel electrophoresis, compared to Free-21.
(§2) Synthetic Pep-21 (10 pmole) was reacted with miRNA-21 and negative control miRNA in 100 μL of PBS under the same conditions as above, in other words, at 37° C. for 1 hour and then whether or not pep-21 recognizes and binds to a specific sequence of miRNA-21 was identified by agarose gel electrophoresis.

[3] = system: negative control miRNA; assay: Agarose gel electrophoresis of sequence specificity with negative control miRNA; assay type: binding; settings: 10 pmole in 100 μL PBS, 37° C., 1 hour
Method: as §2
Whether or not Pep-21 recognizes and binds to a specific sequence to miRNA-21 was determined using the negative control miRNA.

[4] = system: B16 melanoma; assay: Anti-tumor effect in tumor animal model; assay type: in vivo, mice; settings: 500 pmole intratumorally, 3 times at 3-day intervals, from day 12 after tumor inoculation
Excerpt: (§3) On day 12 after tumor inoculation (tumor size of about 70 mm^3), PBS, peptide, Free-21, and Pep-21 were intratumorally injected three times at intervals of three days.

[5] = system: miRNA-21; assay: RT-PCR of miRNA-21 in M2ϕ; assay type: cell-based; settings: 300 nM, 18 hours
Method: (§4) Real-time polymerase chain reaction (RT-PCR) was performed to determine whether or not treatment with Pep-21 inhibited the expression of miRNA-21. M2ϕ was treated with 300 nM of Pep-21 for 18 hours, RNA was isolated and then real-time polymerase chain reaction (RT-PCR) was performed.

[6] = system: B16 melanoma tumor tissue; assay: TUNEL assay on excised tumor tissue; assay type: in vivo, mice; settings: 21 days, compared to the control group
Method: (§5) 21 days after the animal test, the excised tumor tissue was analyzed by immunofluorescence.
TUNEL assay was performed on tumor tissue to determine the degree of apoptosis.

[7] = system: CD31; assay: CD31 immunofluorescence of excised tumor tissue; assay type: in vivo, mice; settings: 21 days, compared to the control group
Method: as §5
In addition, immunofluorescence was performed using CD31, an angiogenesis marker.

[8] = system: TNF-α; assay: RT-PCR of inflammatory cytokines in M2ϕ, TNF-α; assay type: cell-based; settings: 300 nM, 18 hours
Method: as §4
(§6) In addition, the expression level of inflammatory cytokines was determined through RT-PCR.

[9] = system: tissue inhibitor of metalloproteinase-3 (TIMP3); assay: Western blot in B16 cells, TIMP3; assay type: cell-based; settings: 300 nM, serum free media, 24 hours
Method: (§7) B16 cells were treated with 300 nM Pep-21 in serum free media for 24 hours, protein assay was performed and western blot was performed.
(§8) miRNA-21 related markers: programmed cell death 4 (PDCD4), matrix metalloproteinase-2 (MMP2), tissue inhibitor of metalloproteinase-3 (TIMP3)

[10] = system: programmed cell death 4 (PDCD4); assay: Western blot in B16 cells, PDCD4; assay type: cell-based; settings: 300 nM, serum free media, 24 hours
Method: as §7, §8

[11] = system: matrix metalloproteinase-2 (MMP2); assay: Western blot in B16 cells, MMP2; assay type: cell-based; settings: 300 nM, serum free media, 24 hours
Method: as §7, §8

[12] = system: M2ϕ (M2 bone marrow-derived macrophages); assay: Cellular uptake in M2 bone marrow-derived macrophages, fluorescence microscopy; assay type: cell-based; settings: 300 nM Cy5-labeled, 6 hours, compared to Free-21
[13] = system: B16 cells; assay: Scratch-wound healing assay in B16 cells; assay type: cell-based; settings: 300 nM in serum free media 48 hours, observed 72 hours after wounding, compared to the control group
Method: A scratch-wound healing assay was performed in order to analyze cell migration.
B16 cells were wounded using a 200 μL pipette tip, treated with 300 nM Pep-21 in serum free media for 48 hours, and then stabilized in fresh growth media for 24 hours.

[14] = system: miRNA-21; assay: RT-PCR of miRNA-21 in treated cancer tissue; assay type: in vivo, mice; settings: B16 tumor tissue, compared to the control group
Excerpt: as §3

[15] = system: B16 cells; assay: Cytotoxicity in B16 cells, cell counting Kit-8 (CCK-8); assay type: cell-based; settings: 300 nM, 24 hours
Method: (2) To determine the cytotoxicity of this substance, B16 cells were treated with 300 nM Pep-21 for 24 hours and the cytotoxicity was confirmed using cell counting Kit-8 (CCK-8).

[16] = system: Arginasel (M2 marker); assay: Immunofluorescence of tumor-associated macrophages, Arginase1; assay type: in vivo, mice; settings: tumor-associated macrophages in excised tumor tissue, 21 days
Method: as §1

[17] = system: miRNA-21; assay: RT-PCR of miRNA-21 in B16 cells; assay type: cell-based; settings: 300 nM, 18 hours
Method: (1) Real-time polymerase chain reaction (RT-PCR) was performed to determine whether or not miRNA-21 expression was inhibited by treatment with Pep-21. B16 cells were treated with 300 nM of Pep-21 for 18 hours, RNA was isolated, cDNA was synthesized, and then real-time polymerase chain reaction (RT-PCR) was performed using miRNA-21 primer.

[18] = system: IL-12; assay: RT-PCR of inflammatory cytokines in M2ϕ, IL-12; assay type: cell-based; settings: 300 nM, 18 hours
Method: as §4, §6

[19] = system: B16 melanoma cells; assay: Cellular uptake in B16 melanoma cells, fluorescence microscopy; assay type: cell-based; settings: B16, 300 nM Cy5-labeled, 6 hours
Method: Melanoma cells (B16) were treated with 300 nM miRNA-21 labeled with Cy5 fluorescent dye for 6 hours and the degree of intracellular uptake was then observed with a fluorescence microscope.

Pep-21: Azide PDL1-binding peptide (N3-NYSKPTDRQYHF, d-form) click-conjugated to DBCO-anti-miR-21 DNA 5′-TCAACATCAGTCTGATAAGCTA-3′
iNOS (M1 marker) by IF [1]: increased
binding affinity to miRNA-21 (gel electrophoresis) ([2]; 10 pmole annealed with miR-21 (0, 0.25, 0.5, 0.75 and 1) in 100 μL PBS, 37° C., 1 hour): binding affinity increased as the concentration increased
band shift upon reaction with miRNA-21 ([2]; 10 pmole in 100 μL PBS, 37° C., 1 hour): a band shift was observed
sequence-specific recognition of miRNA-21 versus negative control miRNA ([2]; conclusion from the band shift test): selectively binds to miRNA-21
band shift upon reaction with Neg-miRNA [3]: no band shift was observed
cancer growth [4]: inhibit cancer growth
expression of miRNA-21 (RT-PCR) [5]: inhibited expression of miRNA-21
degree of apoptosis (TUNEL) [6]: increased compared to the control group
CD31 (angiogenesis marker) expression [7]: decreased compared to the control group
mRNA expression of TNF-α [8]: promoted mRNA expression
Timp3 expression (western blot) [9]: increased
PDCD4 expression (western blot) [10]: increased
MMP2 expression (western blot) [11]: decreased
degree of uptake into cells [12]: successfully delivered anti-21 to the cytoplasm
cancer cell migration [13]: further inhibited
amount of miRNA-21 expressed in cancer tissue (RT-PCR) [14]: reduced compared to the control group
cytotoxicity (CCK-8) [15]: almost no cytotoxicity
Arginasel (M2 marker) by IF [16]: decreased
expression of miRNA-21 (RT-PCR) [17]: decreased the expression of miRNA-21
mRNA expression of IL-12 [18]: promoted mRNA expression
degree of intracellular uptake [19]: greatly advantageous in intracellular delivery
cellular uptake when blocking with PD-L1 antibody ([19]; PD-L1 antibody blocking): cellular uptake decreased
